Measured values as given in patent US20130053357A1, “SKIN IRRITATION SUPPRESSANT AND TRANSDERMAL PREPARATION” (HISAMITSU PHARMACEUTICAL CO., INC., priority 2010, published 2013).
Structures can show the parent of a compound that is named as a salt. Where two headings read alike, the source gives them in different places.

Assays:
[1] = tested on: human three-dimensional culture epidermal model (LabCyte EPI-MODEL); test: Suppression by cholesterol of skin irritation mediator production induced by asenapine and LADA in a human epidermal cell (Experiment 6); assay type: cell-based; conditions: without or with 1% by mass of cholesterol
Protocol: (§1) A human three-dimensional epidermal culture model obtained by multilayer-culturing a human normal epidermal cell (LabCyte EPI-MODEL, manufactured by Japan Tissue Engineering Co., Ltd.) was used. LabCyte is a cultured skin cultured in a transwell. For the experiment, LabCyte was used with the transwell.
(§2) The experiment was conducted as below. First, LabCyte was put into a 24-well assay plate. Then, 1 ml of assay medium (Japan Tissue Engineering Co., Ltd.) was added so that it was brought into contact with a bottom surface of the cultured skin in each well of the 24-well assay plate, and was pre-cultured in an incubator with 5% of carbon dioxide concentration at 37° C. for 1 hour.
(§3) The test solutions of each group were added to the cells, the culture solutions incubated for 48 hours were collected, and a production amount of each skin irritation mediator was measured. The skin irritation mediator was measured by using a commercially available ELISA kit (manufactured by R&D Systems, Inc.). A relative production amount of the skin irritation mediator in each test substance was calculated as below, when the production amount of the skin irritation mediator in the PMA Only Group was set to 100.
Cholesterol was used as a test substance. Asenapine and lauric acid diethanolamide (LADA) were used as the cutaneous irritants.
Tests were conducted by the following group composition. • Solvent Group: A group including only vehicle. Olive oil was used as a vehicle. • Skin Irritant Only Group: A group with addition of only cutaneous irritant dispersed in a vehicle, as a test solution. The concentration of asenapine maleate to be added was 0.6% (asenapine group), and that of LADA was 0.03% (LADA group). • Skin Irritant Plus Cholesterol Group: A group with addition of the drug and 1% by mass of cholesterol which were dispersed in a vehicle, as a test solution.
The experiment was conducted while other conditions were set in the same manner as Experiment 1.

[2] = tested on: croton oil-induced mouse ear swelling; test: Suppression of croton oil-induced mouse ear swelling reaction (Experiment 3); assay type: in vivo; conditions: for Inhibition Ratio Of Ear Swelling: ddY female mouse, 1% by mass of test substance in 2% croton oil solution, 25 μL on ears, auricular thickness 6 hours after; for Effect on croton oil-induced mouse ear swelling reaction (in words): summary of Table 3
Excerpt: <Suppression of Croton Oil-Induced Mouse Ear Swelling Reaction by the Test Substances>
Suppression of mouse ear swelling was examined through the use of croton oil (Wako Pure Chemical Industries, Ltd.) as a swelling inducer. A 7-week-old ddY female mouse (SPF) was subjected to an experiment. As test substances, cholesterol, glycyrrhizin, glycyrrhetinic acid, squalene, ergosterol, squalane and lanosterol were used. As a vehicle, acetone (Wako Pure Chemical Industries, Ltd.) was used.
Experiments were conducted by the following group composition. • Positive Control Group: A group which received only the vehicle as a primary test solution, and one hour after, received a 2% croton oil solution as a secondary test solution. • Test Substance Group: A group in which only the vehicle was administered as a primary test solution, and one hour after, a 2% croton oil solution including 1% by mass of test substance was administered as a secondary test solution.
An inhibition ratio of ear swelling was calculated as below. In this test, a […] inflammation model is used to examine immediate swelling reactions. In accordance with the group composition, 25 μL of the primary test solution was uniformly coated on back sides of both ears in an etherize mouse, and one hour after, 25 μL of the secondary test solution was uniformly coated in accordance with the group composition. Prior to coating of the secondary test solution, a thickness of auricle was measured by DIAL […] GAUGE (OZAKI MFG CO., LTD.). Furthermore, the secondary test solution was administered, and 6 hours after, the auricular thickness was measured in the same way as mentioned above, and an increased amount of the auricular thickness was set by deducting the thickness measured prior to administration of the secondary test solution. The inhibition ratio of ear swelling was calculated as below.
Inhibition ratio of ear swelling (%)=(increased amount of auricular thickness in Test Substance Group−increased amount of auricular thickness in Negative Control Group)/(increased amount of auricular thickness in Positive Control Group−increased amount of auricular thickness in Negative Control Group)×100

[3] = tested on: human three-dimensional culture epidermal model (LabCyte EPI-MODEL); test: Production of skin irritation mediators induced by PMA in human three-dimensional epidermal culture model (Experiment 1); assay type: cell-based; conditions: for activity at 0.1 % / activity at 0.01 % / activity at 1 %: Homo sapiens, 48 hours; for activity at 0.1 %: test substance 0.1 mass % with PMA in olive oil; for Effect on skin irritation mediator production by PMA (in words): summary of Table 1; for activity at 0.01 %: test substance 0.01 mass % with PMA in olive oil; for activity at 1 %: test substance 1 mass % with PMA in olive oil
Excerpt: Changes in production amounts of skin irritation mediators by test substances were examined when cutaneous irritants were caused to act on a human three-dimensional culture epidermal model.
as §1
As test substances, there were used cholesterol (manufactured by Wako Pure Chemical Industries, Ltd.), β-sitosterol (manufactured by TAMA BIOCHEMICAL CO., LTD.), α-spinasterol (manufactured by ChromaDex, Inc.), ergosterol (manufactured by Wako Pure Chemical Industries, Ltd.), campesterol (manufactured by TAMA BIOCHEMICAL CO., LTD.), glycyrrhizin (manufactured by Wako Pure Chemical Industries, Ltd.), glycyrrhetinic acid (manufactured by Wako Pure Chemical Industries, Ltd.), ginsenoside (manufactured by Wako Pure Chemical Industries, Ltd.), squalene (manufactured by Wako Pure Chemical Industries, Ltd.), squalane (manufactured by Tokyo Chemical Industry Co., Ltd.) and lanosterol (manufactured by ChromaDex, Inc.), which are candidates of a skin irritation suppressant.
As skin irritants, Phorbol 12-Myristate 13-Acetate (PMA, manufactured by Wako Pure Chemical Industries, Ltd.) was used. In addition, as vehicle, olive oil (manufactured by Wako Pure Chemical Industries, Ltd.) was used.
Experiments were conducted by the following group composition. • PMA Only Group: A group with addition of only 0.00001 mol of PMA dispersed in a vehicle, as a test solution. • Test Substance Group: A group with addition of 0.00001 mol of PMA and the test substance which were dispersed in a vehicle, as a test solution.
as §2
Next, a cell survival rate was measured by the MTT method after causing the test solutions of each group to act. Specifically, 50 μL of the test solution of each group was added to the surface of the LabCyte after preculture, was cultured in the incubator with 5% of carbon dioxide concentration at 37° C. for 48 hours, then was transferred to the assay medium comprising 0.5 mg/ml of MTT reagent, and was cultured in the incubator with 5% of carbon oxide level at 37° C. for 3 hours. Then, LabCyte was immersed in 0.3 ml of an isopropanol solution, and the produced blue-purple formazan was extracted for 2 hours. After extraction, an absorbance at 570 nm was measured by a 96 microplate reader. The cell survival rate was calculated as below.
Cell survival rate (%)=(absorbance of Test Substance Group)/(absorbance of PMA Only Group)×100
Subsequently, a production amount of the skin irritation mediator at a test substance concentration with 80% or more of cell survival rate was measured. As skin irritation mediators, PGE2, IL-1α, IL-6, IL-8 were measured.
as §3
Relative production amount=(production amount of the mediator in Test Substance Group)/(production amount of the mediator in PMA Only Group)×100

[4] = read-out: Relative Production Amount of Skin Irritation Mediator when Production Amount in PMA Only Group is Set to 100: IL-1α
[5] = read-out: Relative Production Amount of Skin Irritation Mediator when Production Amount in PMA Only Group is Set to 100: IL-6
[6] = read-out: Relative Production Amount of Skin Irritation Mediator when Production Amount in PMA Only Group is Set to 100: IL-8
[7] = read-out: Relative Production Amount of Skin Irritation Mediator when Production Amount in PMA Only Group is Set to 100: PGE2
[8] = asenapine maleate 0.6% in olive oil

Compound | Inhibition Ratio Of Ear Swelling [2] [%] | Effect on croton oil-induced mouse ear swelling reaction (in words) [2] | Effect on skin irritation mediator production by PMA (in words) [3] | activity at 0.01 % [3, 4] [%] | activity at 0.01 % [3, 5] [%] | activity at 0.01 % [3, 6] [%] | activity at 0.01 % [3, 7] [%] | further results
CCCCCCCCCCCC(=O)N(CCO)CCO [LADA, lauric acid diethanolamide] |  |  |  |  |  |  |  | Production Amount of Skin Irritation Mediator: IL-1α ([1]; LADA 0.03% in olive oil): 29.85 pg/mL; Production Amount of Skin Irritation Mediator: IL-6 ([1]; LADA 0.03% in olive oil): 0.00 pg/mL; Production Amount of Skin Irritation Mediator: IL-8 ([1]; LADA 0.03% in olive oil): 160.29 pg/mL; Production Amount of Skin Irritation Mediator: PGE2 ([1]; LADA 0.03% in olive oil): 30.64 pg/mL; Production Amount of Skin Irritation Mediator: TNFα ([1]; LADA 0.03% in olive oil): 0.00 pg/mL
CC(C)CCCC(C)CCCC(C)CCCCC(C)CCCC(C)CCCC(C)C (stereo not drawn) [Squalane, squalane] | 61.6 | suppress croton oil-induced mouse ear swelling reaction | exhibited effects of suppressing the skin irritation mediator production by PMA |  |  |  |  | activity at 0.1 % [3, 4]: 18%; activity at 0.1 % [3, 5]: 55%; activity at 0.1 % [3, 6]: 39%; activity at 0.1 % [3, 7]: 41%
CN1CC2c3ccccc3Oc3ccc(Cl)cc3C2C1 (stereo not drawn) [Asenapine, asenapine maleate] |  |  |  |  |  |  |  | Production Amount of Skin Irritation Mediator: IL-1A [1, 8]: 17.24 pg/mL; Production Amount of Skin Irritation Mediator: IL-6 [1, 8]: 0.00 pg/mL; Production Amount of Skin Irritation Mediator: IL-8 [1, 8]: 174.90 pg/mL; Production Amount of Skin Irritation Mediator: PGE2 [1, 8]: 125.85 pg/mL; Production Amount of Skin Irritation Mediator: TNFA [1, 8]: 0.00 pg/mL
CC(C)=CCC/C(C)=C/CC/C(C)=C/CC/C=C(\C)CC/C=C(\C)CCC=C(C)C [Squalene, squalene] | 44.4 | suppress croton oil-induced mouse ear swelling reaction | exhibited effects of suppressing the skin irritation mediator production by PMA | 10 | 0 | 131 | 88 | 
CC1(C)[C@@H](O[C@H]2O[C@H](C(=O)O)[C@@H](O)[C@H](O)[C@H]2O[C@@H]2O[C@H](C(=O)O)[C@@H](O)[C@H](O)[C@H]2O)CC[C@]2(C)[C@H]3C(=O)C=C4[C@@H]5C[C@@](C)(C(=O)O)CC[C@]5(C)CC[C@@]4(C)[C@]3(C)CC[C@@H]12 [Glycyrrhizin, glycyrrhizin] | 34.1 | suppress croton oil-induced mouse ear swelling reaction | exhibited effects of suppressing the skin irritation mediator production by PMA | 85 | 105 | 154 | 114 | 
CC1(C)[C@@H](O)CC[C@]2(C)[C@H]3C(=O)C=C4[C@@H]5C[C@@](C)(C(=O)O)CC[C@]5(C)CC[C@@]4(C)[C@]3(C)CC[C@@H]12 [Glycyrrhetinic Acid, glycyrrhetinic acid] | 53.4 | suppress croton oil-induced mouse ear swelling reaction | exhibited effects of suppressing the skin irritation mediator production by PMA | 77 | 46 | 81 | 48 | 
CC(C)=CCC[C@@H](C)[C@H]1CC[C@@]2(C)C3=C(CC[C@]12C)[C@@]1(C)CC[C@H](O)C(C)(C)[C@@H]1CC3 [Lanosterol, lanosterol] | 65.9 | suppress croton oil-induced mouse ear swelling reaction | exhibited effects of suppressing the skin irritation mediator production by PMA |  |  |  |  | activity at 1 % [3, 4]: 76%; activity at 1 % [3, 5]: 90%; activity at 1 % [3, 6]: 73%; activity at 1 % [3, 7]: 47%
